{
  "source": "patent US20040034216A1",
  "about": "“3-Nitrogen-6,7-dioxygen steroids and uses related thereto” (priority 2003, published 2004)",
  "key": {"[1]": {"tested_on": "Rat Mast Cell Line (RBL-2H3)", "assay": "Antigen-induced release of hexosaminidase from a rat mast cell line (RBL-2H3)", "type": "cell-based", "conditions": "tested at 0.3, 3, 10 and 30 μM, read-out: Hex IC50", "protocol": "The anti-allergic effects of a compound of the present invention was evaluated by measuring its effect on antigen-induced secretion of hexosaminidase from a passively sensitized rat mast cell line. The ability of a test compound to inhibit the release of mast cell granule contents, e.g., histamine and hexosaminidase, is indicative of the anti-allergy and/or anti-asthma activity of the compound. Hexosaminidase is released from the mast cell granule along with histamine and other mediators during antigen challenge. The test is performed as follows.\nRBL-2H3 cells are grown in culture and passively sensitized for 1 hour at 37° C. to dinitrophenol (DNP) using anti-human-DNP (IgE). Cells are incubated with test compound for 30 minutes at 37° C. and stimulated with 0.5 μg/ml DNP-HSA (antigen) for 30 minutes. Aliquots of the supernatant are removed and used to measure the amount of hexosaminidase released during challenge with the antigen. The amount of hexosaminidase present in the supernatant is determined colorimetrically by monitoring the enzymatic metabolism of p-nitrophenyl-N-acetyl-β-D-glucosaminide (p-NAG) over a period of 60 minutes at 405 nm. The effect of each test compound is determined as a percentage of the antigen-induced response (minus background release) obtained in the presence of DMSO alone. These values are used to determine the degrees of inhibition of antigen-induced hexosaminidase release from the cells."}, "[2]": {"tested_on": "Jurkat clone E6.1 cells", "assay": "Antigen-induced calcium flux in anti-CD3 stimulated Jurkat cells (Fura 2AM)", "type": "cell-based", "conditions": "anti-CD3 mAb stimulated Jurkat clone E6.1 cells; for inhibition at 20 µM: Homo sapiens, Jurkat, read-out: Calcium (% inhibition at 20 μM), 20 μM", "from_the_text": "Elevation of cytoplasmic calcium concentration is a common and crucial event which follows the activation of many types of cell surface receptors. Increases in intracellular calcium that occur following agonist activation of inositol lipid hydrolysis are the results of calcium release from the endoplasmic reticulum and the influx of calcium through the plasma membrane. Increases in cytosolic calcium concentration are involved in many important cellular responses in the inflammatory process including adhesion, motility, gene expression, proliferation, and degranulation. Changes in intracellular calcium concentrations can affect both short and long term cellular responses. An assay method to evaluate a test compound's impact on calcium flux is provided as follows.\nThe resulting supernatants are discarded and each pellet is washed in 10 mL HBSS. Cell suspensions are accumulated and centrifuged for 5 minutes at 900 RPM to form a cell pellet. The resulting supernatant is discarded and the pellet is resuspended in HBSS at 1×10^7cells/mL. The cell suspension is transferred to a 20 mm petri dish and incubated at 37° C., 5% CO2 for 20 minutes.\nOne volume of Fura 2AM is mixed to one volume of detergent Pluronic F127. Cells are labeled with 4 μL of probe solution to each mL of cell suspension. The petri dish is wrapped in aluminum foil to protect from light and placed on a plate shaker for 30 minutes at room temperature.\nThe following steps are done in the laminar flow hood with the fluorescent lights turned off. The petri dish is removed from the shaker and the labeled cell suspension is transferred to a 15 mL conical tube and washed twice with HBSS as above. The cell pellet is resuspended in 12 mL HBSS and left wrapped in foil for 30 minutes at room temperature. The labeled cell suspension is aliquoted (100 μL/well) into a Dynex 96 well white opaque tissue culture plate. […] Selected compounds were tested for dose related activity. Test samples and activator (anti-CD3 mAb at final concentration of 4 μg/mL, PharMingen) are added manually (50 μL), such that the minimum time to acquire the first data point after stimulation is approximately 30 seconds. The calcium influx response to anti-CD3 mAb is measured as an “end point” assay. The entire plate is read in 100 seconds using a kinetic of 1 second per well.\nThe plate is read before the addition of anti-CD3 to monitor non-specific effect of samples/drugs. Fluorescence emission is measured at 510 nm with excitation alternating between 340 and 380 every second using an excitation/emission filter pair. Data from these dual wavelengths are represented as a ratio of 2 excitations wavelengths. This ratio is independent of intracellular dye and cell concentrations, enabling real comparison between experiments."}, "[3]": {"tested_on": "sensitized Brown Norway rats", "assay": "Ovalbumin-induced accumulation of inflammatory cells in lung lavage fluid (allergen-induced lung inflammation)", "type": "in vivo, rat", "conditions": "1 mg/kg/day for 4 days, p.o., corn oil; lung lavage fluid", "protocol": "The ability of a compound to inhibit the allergen-induced accumulation of inflammatory cells such as eosinophils and neutrophils in the lavage fluid obtained from sensitized animals is indicative of that compound's anti-asthma activity. […] The test is conducted as follows.\nMale Brown Norway rats are sensitized to ovalbumin by single intraperitoneal injection of 1 mg ovalbumin adsorbed to 100 mg […] (alum) in 1 ml sterile saline (saline control rats receive only sterile saline) on day 1, and allowed to sensitize until day 21. […] Rats are challenged with 0.5% ovalbumin in saline generated using a Devillbis nebulizer for 60 min on day 21.\nForty-eight hrs after challenge, animals are sacrificed with an overdose of intraperitoneally-delivered sodium pentobarbitol and the lungs are lavaged with cold 2×7 ml phosphate buffered saline. The recovered lavage fluid is placed on ice. The bronchoalveolar lavage fluid is centrifuged and the supernatant removed. The pellet is resuspended in phosphate buffered saline at 4° C. Cytospins are prepared and stained for differentiation and enumeration of cell types.\nTest compound was administered in 300 μl corn oil (Tables 7 and 8) or water (Table 9), which were used as vehicles. Control animals received 300 μl corn oil or water alone, i.e., no drug. […] A negative value in Table 7, 8, or 9 indicates an exacerbation of the effect over the control animal."}, "[4]": {"conditions": "Rattus norvegicus, RBL-2H3, inhibition of antigen (DNP-HSA)-induced hexosaminidase release"}},
  "note": "pIC50: −log10 of the molar value. Like-named read-outs stand apart in the source and are kept apart here.",
  "data": [
    {"molecule": "C/C=C1/CCC2C3C(CC[C@]12C)[C@@]1(C)CCC(N2CCCCC2)CC1[C@@H](O)[C@@H]3O", "note": "(stereo partly shown) [Compound 110]", "values": [
      {"measurement": "pIC50", "setting": "[1]; [4]", "result": 4.96},
      {"measurement": "inhibition at 20 µM", "setting": "[2]", "result": 39.7, "unit": "%"}
    ]},
    {"molecule": "C/C=C1/CCC2C3C(CC[C@]12C)[C@@]1(C)CCC(NC)CC1[C@@H](O)[C@@H]3O", "note": "(stereo partly shown) [Compound 113]", "values": [
      {"measurement": "pIC50", "setting": "[1]; [4]", "result": 5.01},
      {"measurement": "inhibition at 20 µM", "setting": "[2]", "result": 45, "unit": "%"}
    ]},
    {"molecule": "CC=C1CCC2C3C(O)C(O)C4CC(NCCCCC)CCC4(C)C3CCC12C.Cl", "note": "(stereo not shown) [Compound 115]", "values": [
      {"measurement": "Calcium (% inhibition at 20 μM)", "setting": "[2]", "result": 40.0, "unit": "%"}
    ]},
    {"molecule": "CC(=O)O.CC=C1CCC2C3C(O)C(O)C4CC(NC5CCCC5)CCC4(C)C3CCC12C", "note": "(stereo not shown) [Compound 116]", "values": [
      {"measurement": "Calcium (% inhibition at 20 μM)", "setting": "[2]", "result": 60.9, "unit": "%"}
    ]},
    {"molecule": "CC=C1CCC2C3C(O)C(O)C4CC(NCCNCCC)CCC4(C)C3CCC12C", "note": "(stereo not shown) [Compound 119]", "values": [
      {"measurement": "pIC50", "setting": "[1]; inhibition of antigen (DNP-HSA)-induced hexosaminidase release", "result": 5.21}
    ]},
    {"molecule": "CC=C1CCC2C3C(O)C(O)C4CC(NCCN(C)C)CCC4(C)C3CCC12C.Cl.Cl", "note": "(stereo not shown) [Compound 120]", "values": [
      {"measurement": "Calcium (% inhibition at 20 μM)", "setting": "[2]", "result": 44.0, "unit": "%"}
    ]},
    {"molecule": "CC=C1CCC2C3C(O)C(O)C4CC(NCCNCCO)CCC4(C)C3CCC12C.Cl.Cl", "note": "(stereo not shown) [Compound 124]", "values": [
      {"measurement": "Calcium (% inhibition at 20 μM)", "setting": "[2]", "result": 21.0, "unit": "%"},
      {"measurement": "% inhibition of eosinophils", "setting": "[3]", "result": "−55", "unit": "%"},
      {"measurement": "% inhibition of lymphocytes", "setting": "[3]", "result": "−26", "unit": "%"},
      {"measurement": "% inhibition of neutrophils", "setting": "[3]", "result": "−76", "unit": "%"}
    ]},
    {"molecule": "CC=C1CCC2C3C(O)C(O)C4CC(Nc5cccc(C)c5)CCC4(C)C3CCC12C.Cl", "note": "(stereo not shown) [Compound 125]", "values": [
      {"measurement": "Calcium (% inhibition at 20 μM)", "setting": "[2]", "result": 5.7, "unit": "%"}
    ]},
    {"molecule": "CC=C1CCC2C3C(O)C(O)C4CC(Nc5ccc(O)cc5)CCC4(C)C3CCC12C.Cl", "note": "(stereo not shown) [Compound 126]", "values": [
      {"measurement": "Calcium (% inhibition at 20 μM)", "setting": "[2]", "result": 45.0, "unit": "%"}
    ]},
    {"molecule": "C=C1CCC2C3C(CC[C@]12C)[C@@]1(C)CC[C@@H](NC(C)=O)CC1[C@@H](O)[C@@H]3O", "note": "(stereo partly shown) [Compound 131]", "values": [
      {"measurement": "pIC50", "setting": "[1]; [4]", "result": 4.85},
      {"measurement": "inhibition at 20 µM", "setting": "[2]", "result": 9.9, "unit": "%"}
    ]},
    {"molecule": "C=C1CCC2C3C(CC[C@]12C)[C@@]1(C)CC[C@@H](NS(=O)(=O)C(C)C)CC1[C@@H](O)[C@@H]3O", "note": "(stereo partly shown) [Compound 133]", "values": [
      {"measurement": "% inhibition of eosinophils", "setting": "[3]", "result": "−43", "unit": "%"},
      {"measurement": "% inhibition of lymphocytes", "setting": "[3]", "result": 28, "unit": "%"},
      {"measurement": "% inhibition of neutrophils", "setting": "[3]", "result": 40, "unit": "%"}
    ]},
    {"molecule": "C=C1CCC2C3C(CC[C@]12C)[C@@]1(C)CC[C@@H](NC(=O)Nc2ccccc2)CC1[C@@H](O)[C@@H]3O", "note": "(stereo partly shown) [Compound 137]", "values": [
      {"measurement": "pIC50", "setting": "[1]; [4]", "result": 4.83},
      {"measurement": "inhibition at 20 µM", "setting": "[2]", "result": 13, "unit": "%"}
    ]},
    {"molecule": "C=C1CCC2C3C(CC[C@]12C)[C@@]1(C)CC[C@@H](NC(=O)NCCC)CC1[C@@H](O)[C@@H]3O", "note": "(stereo partly shown) [Compound 138]", "values": [
      {"measurement": "Calcium (% inhibition at 20 μM)", "setting": "[2]", "result": 9.0, "unit": "%"},
      {"measurement": "% inhibition of eosinophils", "setting": "[3]", "result": "−52", "unit": "%"},
      {"measurement": "% inhibition of lymphocytes", "setting": "[3]", "result": 33, "unit": "%"},
      {"measurement": "% inhibition of neutrophils", "setting": "[3]", "result": 35, "unit": "%"}
    ]},
    {"molecule": "COc1ccc(CNC2CCC3(C)C(C2)C(O)C(O)C2C4=C(CCC23)C(C)(C)CC4)cc1OC.Cl", "note": "(stereo not shown) [Compound 142]", "values": [
      {"measurement": "% inhibition of lymphocytes", "setting": "[3]", "result": "−42", "unit": "%"},
      {"measurement": "% inhibition of neutrophils", "setting": "[3]", "result": "−1", "unit": "%"}
    ]},
    {"molecule": "CCC1(C)CCC2=C1CCC1C2C(O)C(O)C2CC(NCc3ccccc3)CCC21C.Cl", "note": "(stereo not shown) [Compound 146]", "values": [
      {"measurement": "% inhibition of eosinophils", "setting": "[3]", "result": 8, "unit": "%"},
      {"measurement": "% inhibition of lymphocytes", "setting": "[3]", "result": "−27", "unit": "%"},
      {"measurement": "% inhibition of neutrophils", "setting": "[3]", "result": 24, "unit": "%"}
    ]},
    {"molecule": "CCC1(C)CCC2=C1CCC1C2C(O)C(O)C2CC(NCc3ccccc3)CCC21C.Cl", "note": "(stereo not shown) [Compound 147]", "values": [
      {"measurement": "% inhibition of eosinophils", "setting": "[3]", "result": 40, "unit": "%"},
      {"measurement": "% inhibition of lymphocytes", "setting": "[3]", "result": 36, "unit": "%"},
      {"measurement": "% inhibition of neutrophils", "setting": "[3]", "result": 58, "unit": "%"}
    ]},
    {"molecule": "COC1C(OC)C2CC(N)CCC2(C)C2CCC3=C(CCC3(C)C)C12.Cl", "note": "(stereo not shown) [Compound 148]", "values": [
      {"measurement": "Calcium (% inhibition at 20 μM)", "setting": "[2]", "result": 6.6, "unit": "%"}
    ]}
  ]
}
